Some results are limits rather than exact numbers.

Broadly, the Ki is the dissociation constant of the complex between target and ligand, obtained from inhibition or displacement.

In this test the target is human σ1 receptor and human μ-opioid receptor. As to the kind of experiment: Human σ1 receptor radioligand assay and human μ-opioid receptor radioligand assay (results reported only as combined μ and σ1 dual binding). Set-up: key to μ and σ1 dual binding: +: Both Ki-μ and Ki-σ1>=500 nM; ++: One Ki<500 nM while the other Ki is >=500 nM; +++: Both Ki-μ and Ki-σ1<500 nM; ++++: Both Ki-μ and Ki-σ1<100 nM. Conditions: Ki at human σ1 receptor (HEK-293 membranes, [3H](+)-pentazocine) and human μ-opioid receptor (CHO-K1 membranes, [3H]-DAMGO), one combined class. As for the experimental part:
To investigate binding properties of σ1 receptor ligands to human σ1 receptor, transfected HEK-293 membranes and [^3H](+)-pentazocine (Perkin Elmer, NET-1056), as the radioligand, were used. The assay was carried out with 7 μg of membrane suspension, 5 nM of [^3H](+)-pentazocine in either absence or presence of either buffer or 10 μM Haloperidol for total and non-specific binding, respectively. Binding buffer contained Tris-HCl 50 mM at pH 8. Plates were incubated at 37° C. for 120 minutes. After the incubation period, the reaction mix was then transferred to MultiScreen HTS, FC plates (Millipore), filtered and plates were washed 3 times with ice-cold 10 mM Tris-HCL (pH7.4). Filters were dried and counted at approximately 40% efficiency in a MicroBeta scintillation counter (Perkin-Elmer) using EcoScint liquid scintillation cocktail
To investigate binding properties of μ-opioid receptor ligands to human μ-opioid receptor, transfected CHO-K1 cell membranes and [^3H]-DAMGO (Perkin Elmer, ES-542-C), as the radioligand, were used. The assay was carried out with 20 μg of membrane suspension, 1 nM of [^3H]-DAMGO in either absence or presence of either buffer or 10 μM Naloxone for total and non-specific binding, respectively. Binding buffer contained Tris-HCl 50 mM, MgCl2 5 mM at pH 7.4. Plates were incubated at 27° C. for 60 minutes. After the incubation period, the reaction mix was then transferred to MultiScreen HTS, FC plates (Millipore), filtered and plates were washed 3 times with ice-cold 10 mM Tris-HCL (pH 7.4). Filters were dried and counted at approximately 40% efficiency in a MicroBeta scintillation counter (Perkin-Elmer) using EcoScint liquid scintillation cocktail.

Turning to `CCNC(=O)Oc1cccc(C2CCN(Cc3cn(-c4ccccc4)nn3)CC2)c1` [Example 1, 3-(1-((1-phenyl-1H-1,2,3-triazol-4-yl)methyl)piperidin-4-yl)phenyl ethylcarbamate], the Ki is under 500 nM.

For the compound `COc1cccc(C2CCN(Cc3cn(-c4ccc(F)cc4)nn3)CC2)c1` [Example 2, 1-((1-(4-fluorophenyl)-1H-1,2,3-triazol-4-yl)methyl)-4-(3-methoxyphenyl)piperidine], the “μ and σ1 dual binding” value is on record as “++”. Regarding `CC(=O)Oc1cccc(C2CCN(Cc3cn(Cc4ccccn4)nn3)CC2)c1` [Example 3, 3-(1-((1-(pyridin-2-ylmethyl)-1H-1,2,3-triazol-4-yl)methyl)piperidin-4-yl)phenyl acetate], the “μ and σ1 dual binding” value is given as “++”. Take `O=C(Nc1ccc(C(=O)O)cc1)Oc1cccc(C2CCN(Cc3cn(Cc4ccccn4)nn3)CC2)c1` [Example 4]: the Ki is under 500 nM.

In the case of `CC(C)C(=O)Oc1cccc(C2CCN(Cc3cn(Cc4ccccn4)nn3)CC2)c1` [Example 5, 3-(1-((1-(pyridin-2-ylmethyl)-1H-1,2,3-triazol-4-yl)methyl)piperidin-4-yl)phenyl isobutyrate], the inhibition constant Ki is under 500 nM. In the case of `CC(C)[C@H](N)C(=O)Oc1cccc(C2CCN(Cc3cn(Cc4ccccn4)nn3)CC2)c1` [Example 6, (S)-3-(1-((1-(pyridin-2-ylmethyl)-1H-1,2,3-triazol-4-yl)methyl)piperidin-4-yl)phenyl 2-amino-3-methylbutanoate], the Ki was under 500 nM. Still for that read-out and setting: with `COc1cccc(C2CCN(Cc3cn(-c4ccccc4)nn3)CC2)c1` [Example 7, 4-(3-methoxyphenyl)-1-((1-phenyl-1H-1,2,3-triazol-4-yl)methyl)piperidine] the figure was under 500 nM; with `CN(C)C(=O)Oc1cccc(C2CCN(Cc3cn(-c4ccccc4)nn3)CC2)c1` [Example 8, 3-(1-((1-phenyl-1H-1,2,3-triazol-4-yl)methyl)piperidin-4-yl)phenyl dimethylcarbamate], under 500 nM; with `CC(=O)Oc1cccc(C2CCN(Cc3cn(-c4ccccc4)nn3)CC2)c1` [Example 9, 3-(1-((1-phenyl-1H-1,2,3-triazol-4-yl)methyl)piperidin-4-yl)phenyl acetate], under 100 nM.

As to `COCCOc1cccc(C2CCN(Cc3cn(-c4ccccc4)nn3)CC2)c1` [Example 10, 4-(3-(2-methoxyethoxy)phenyl)-1-((1-phenyl-1H-1,2,3-triazol-4-yl)methyl)piperidine], the Ki is under 500 nM. As to `COCCCOc1cccc(C2CCN(Cc3cn(-c4ccccc4)nn3)CC2)c1` [Example 11, 4-(3-(3-methoxypropoxy)phenyl)-1-((1-phenyl-1H-1,2,3-triazol-4-yl)methyl)piperidine], the Ki was under 500 nM.

For the compound `COc1cccc(C2CCN(Cc3cn(Cc4ccccn4)nn3)CC2)c1` [Example 12, 2-((4-((4-(3-methoxyphenyl)piperidin-1-yl)methyl)-1H-1,2,3-triazol-1-yl)methyl)pyridine], the “μ and σ1 dual binding” value was “++”. Regarding `CC(C)[C@H](NC(=O)Oc1cccc(C2CCN(Cc3cn(Cc4ccccn4)nn3)CC2)c1)C(=O)O` [Example 13], the Ki is at least 500 nM.

Turning to `O=C(O)CNC(=O)Oc1cccc(C2CCN(Cc3cn(Cc4ccccn4)nn3)CC2)c1` [Example 14], the Ki was at least 500 nM.

Take `COc1cccc(C2CCN(Cc3cn(Cc4ncccc4F)nn3)CC2)c1` [Example 15, 3-fluoro-2-((4-((4-(3-methoxyphenyl)piperidin-1-yl)methyl)-1H-1,2,3-triazol-1-yl)methyl)pyridine]: the “μ and σ1 dual binding” value is “++”. `COc1cccc(C2CCN(Cc3cn(Cc4ccc(F)cn4)nn3)CC2)c1` [Example 16, 5-fluoro-2-((4-((4-(3-methoxyphenyl)piperidin-1-yl)methyl)-1H-1,2,3-triazol-1-yl)methyl)pyridine]: the “μ and σ1 dual binding” value was “++”. For the compound `COc1cccc(C2CCN(Cc3cn(C(CO)c4ccccc4)nn3)CC2)c1` (centres unmarked) [Example 17, 2-(4-((4-(3-methoxyphenyl)piperidin-1-yl)methyl)-1H-1,2,3-triazol-1-yl)-2-phenylethanol], the “μ and σ1 dual binding” value was “++”. On to `O=C(Oc1cccc(C2CCN(Cc3cn(Cc4ccccn4)nn3)CC2)c1)[C@@H]1CCCN1` [Example 18, (S)-3-(1-((1-(pyridin-2-ylmethyl)-1H-1,2,3-triazol-4-yl)methyl)piperidin-4-yl)phenyl pyrrolidine-2-carboxylate], for which the Ki is under 500 nM. For `N[C@@H](Cc1ccccc1)C(=O)Oc1cccc(C2CCN(Cc3cn(Cc4ccccn4)nn3)CC2)c1` [Example 19, (S)-3-(1-((1-(pyridin-2-ylmethyl)-1H-1,2,3-triazol-4-yl)methyl)piperidin-4-yl)phenyl 2-amino-3-phenylpropanoate], the Ki is under 500 nM. Take `NC1(C(=O)Oc2cccc(C3CCN(Cc4cn(Cc5ccccn5)nn4)CC3)c2)CCCCC1` [Example 20, 3-(1-((1-(pyridin-2-ylmethyl)-1H-1,2,3-triazol-4-yl)methyl)piperidin-4-yl)phenyl 1-aminocyclohexanecarboxylate]: the Ki is at least 500 nM.

The values above are taken from patent publication US9902711B2, “Piperidine compounds having multimodal activity against pain” (LABORATORIOS DEL DR. ESTEVE S.A., priority 2013, dated 2018).
